Data published in the OPERA property sets (Mansouri et al. 2018).

## CC(C)CCC#N
  logP: 1.54

## CCCC#N
  logP: 0.53

## N#CCCCl
  logP: 0.18

## CC(C)C#N
  logP: 0.46

## CCCCCCCCC#N
  logP: 3.12

## CCC(C)C#N (stereo unspecified)
  logP: 1.05

## CCCCCCCC#N
  logP: 2.75

## CCCCCC#N
  logP: 1.66

## C=CCC#N
  logP: 0.4

## N#CCCCCl
  logP: 0.56

## C=C(C)C#N
  logP: 0.68
